Measurements from PMC2937029 (PLoS ONE, 2010).
Where two headings read alike, the source gives them in different places.

How the values were obtained:
[1] = molecular target: T1, HprK/P (Brucella melitensis, UniProt Q8YE44)
T1 construct: gene BMEI2034

[2] = molecular target: T2, EI^Ntr (Brucella melitensis, UniProt Q8YJ96); conditions: labelled compound; 10 µM [32P]PEP, NPr as acceptor, 5 mM MgCl2, pH 7.4, 37°C; covalent phosphoryl transfer
T2 construct: gene BMEI0190
T2 sequence (Q8YJ96 1-756): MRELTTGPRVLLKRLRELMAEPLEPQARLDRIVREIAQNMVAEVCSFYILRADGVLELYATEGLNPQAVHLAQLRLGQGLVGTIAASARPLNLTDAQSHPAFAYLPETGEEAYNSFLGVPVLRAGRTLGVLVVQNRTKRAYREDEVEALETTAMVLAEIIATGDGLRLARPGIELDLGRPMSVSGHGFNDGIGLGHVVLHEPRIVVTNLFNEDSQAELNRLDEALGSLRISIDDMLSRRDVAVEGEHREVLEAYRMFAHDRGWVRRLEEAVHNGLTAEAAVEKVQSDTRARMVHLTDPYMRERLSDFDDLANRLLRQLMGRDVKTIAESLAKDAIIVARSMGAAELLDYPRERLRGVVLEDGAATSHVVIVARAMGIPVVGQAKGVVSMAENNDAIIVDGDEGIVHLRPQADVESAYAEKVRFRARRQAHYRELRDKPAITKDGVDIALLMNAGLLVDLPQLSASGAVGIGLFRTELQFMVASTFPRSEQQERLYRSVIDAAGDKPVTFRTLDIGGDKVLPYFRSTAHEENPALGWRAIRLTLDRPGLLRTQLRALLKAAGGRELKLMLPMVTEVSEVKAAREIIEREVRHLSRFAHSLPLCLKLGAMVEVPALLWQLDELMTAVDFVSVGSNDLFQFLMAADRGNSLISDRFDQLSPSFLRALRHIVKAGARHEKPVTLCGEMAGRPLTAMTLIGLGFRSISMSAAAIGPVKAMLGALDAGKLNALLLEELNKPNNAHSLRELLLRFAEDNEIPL

T1 sequence (Q8YE44 1-159): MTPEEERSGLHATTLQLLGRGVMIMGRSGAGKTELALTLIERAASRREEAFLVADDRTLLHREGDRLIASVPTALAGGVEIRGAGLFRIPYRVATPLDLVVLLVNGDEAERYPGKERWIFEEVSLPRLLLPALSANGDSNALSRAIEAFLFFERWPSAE

Row | Structure (SMILES) | 32P NPr kinase assay, SDS-PAGE, phosphorimaging [1] | further results
1 | O=P(O)(O)O [Pi] | inhibition of both the ATP- and PPi-dependent kinase activities of B. melitensis HprK/P | 
2 | O=P(O)(O)OP(=O)(O)O [PPi] | With both phosphoryl group donors, HprK/P was active as a kinase | 
3 | C=C(OP(=O)(O)O)C(=O)O [PEP] |  | 32P phosphotransfer to NPr, SDS-PAGE, phosphorimaging [2]: the additional presence of EI allowed the phosphorylation of wild-type NPr
4 | Nc1ncnc2c1ncn2[C@@H]1O[C@H](COP(=O)(O)OP(=O)(O)OP(=O)(O)O)[C@@H](O)[C@H]1O [ATP] |  | 32P NPr kinase assay, SDS-PAGE, phosphorimaging ([1]; labelled compound, 25 µM [γ-32P]ATP, NPr as acceptor, no FBP or KPi, 5 mM MgCl2, pH 7.4, 37°C): HprK/P phosphorylated wild type NPr and NPrH30A in an ATP-dependent way
